Source: patent US8142760B2, “Vaccination for Lawsonia intracellularis” (priority 2008, dated 2012)

Tested on: Lawsonia intracellularis
Test: Fecal PCR for L. intracellularis in pigs after controlled exposure
Type: in vivo
Details: day 28, after 14 days of MECADOX 50 g/ton in feed started 14 days post inoculation
Text: Four groups of pigs totaling 1409 pigs, between 8 and 10 weeks of age and sourced from a single nursery site, were moved to a finishing barn containing four separate rooms. The barn was filled over four consecutive weeks, filling one room per week. Each group of approximately 350 pigs was weighed as a group before placement into a barn room. The four rooms were alternately assigned to two treatment groups, inoculated (T1) and non-inoculated (T2). Sixteen animals per room were randomly selected and individually identified with ear tags.
On day 0, T1 pigs received inoculum of mucosal homogenate from PE-diseased intestine. Samples of inoculum were submitted to a diagnostic lab for quantification of L. intracellularis organisms before administration. The inoculum was delivered to each pen through the watering system and calibrated to deliver an average dose of 10^5±10 L. intracellularis organisms per pig over a 4-6 hour period. T2 pigs received no inoculum.
All pigs received MECADOX (carbadox) (50 g/ton) for at least 14 days in their nursery diets and up until day −3. Non-medicated feed was fed days −3 to 14 (exposure period) to both treatment groups. MECADOX (carbadox) 50 grams/ton medicated feed was fed to all pigs on days 14 to 28. From day 28 to end of study, all pigs received non-medicated feed. […]

COC(=O)N/N=C/c1c[n+]([O-])c2ccccc2[n+]1[O-] [MECADOX (carbadox), carbadox]
sampled, infected pigs negative by fecal PCR for L. intracellularis: 100%
